The source made the active and inactive calls.
What was measured:
[1] = target: T1, Calpain-2 catalytic subunit (Sus scrofa, UniProt P43367); test: pig calpain II inhibitor potency, dose response, biochemical, fluorogenic peptide substrate (AID 1420); assay type: functional
T1 sequence (P43367 whole entry): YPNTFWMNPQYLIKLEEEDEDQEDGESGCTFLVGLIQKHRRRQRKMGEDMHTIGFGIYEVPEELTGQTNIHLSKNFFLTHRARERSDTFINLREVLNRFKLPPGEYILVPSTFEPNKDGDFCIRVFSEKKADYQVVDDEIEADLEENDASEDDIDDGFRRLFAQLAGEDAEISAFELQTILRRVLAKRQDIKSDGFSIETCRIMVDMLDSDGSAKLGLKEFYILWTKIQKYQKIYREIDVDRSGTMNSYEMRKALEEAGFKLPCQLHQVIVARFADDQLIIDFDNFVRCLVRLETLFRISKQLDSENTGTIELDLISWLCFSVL

[2] = target: Bifunctional protein GlmU (Mycobacterium tuberculosis, UniProt P9WMN3); test: Inhibitors of Mycobacterial Glucosamine-1-phosphate acetyl transferase (GlmU). Secondary screen.; parameters: species or system Mycobacterium tuberculosis H37Rv
[3] = target: Glyceraldehyde-3-phosphate dehydrogenase (Homo sapiens, UniProt P04406)
[4] = target: T2, Bcl-2-related protein A1 (Mus musculus, UniProt Q07440); test: Bfl-1 inhibitors blocking BH3 peptide binding, confirmation, biochemical, TR-FRET, mouse Bfl-1 (AID 621);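 note: TR-FRET binding of GST-Bfl-1 to FITC-labelled Bid peptide via terbium antibody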
T2 sequence (Q07440 whole entry): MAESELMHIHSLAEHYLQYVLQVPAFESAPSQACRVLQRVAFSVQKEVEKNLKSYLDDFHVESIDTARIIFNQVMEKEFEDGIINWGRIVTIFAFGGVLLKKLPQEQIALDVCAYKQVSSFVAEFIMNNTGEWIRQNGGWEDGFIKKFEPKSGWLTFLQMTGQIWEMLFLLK

[5] = target: T2, Bcl-2-related protein A1; test: Bfl-1 binding inhibitors, SAR follow-up, biochemical, fluorescence polarization (AID 1070)
[6] = target: Estrogen receptor beta (Homo sapiens, UniProt Q92731);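 note: recombinant ER-beta bound to coactivator SRC1 peptide in presence of estradiol agonist; inhibitors block coactivator peptide binding and lower the FRET signal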
[7] = target: Sphingosine 1-phosphate receptor 2 (Homo sapiens, UniProt O95136); test: Dose Response Cell Based Assay for Agonists of the S1P2 Receptor. [Related pubchem assays: 729, 736, 843 ]; assay type: functional
[8] = Concentration-dependent survival of SW480 colon cancer line, luminescence detection with CellTiter-Glo, half-maximal inhibitory concentration (AID 1117338); assay type: functional
[9] = RKO cell viability reduction, dose response, CellTiter-Glo luminescence (AID 1117322); assay type: functional
[10] = cytotoxicity toward HCT116 cells – cell-based, CellTiter-Glo luminescence, IC50, dose response (AID 1117332); assay type: functional; settings: HCT-116
[11] = SNU-C1 cell viability reduction, dose response, CellTiter-Glo luminescence (AID 1117323); assay type: functional, cell-based
[12] = cytotoxicity toward Colo320 cells – cell-based, CellTiter-Glo luminescence, IC50, dose response (AID 1117334); assay type: functional; settings: COLO 320
[13] = cytotoxicity toward HT-29 cells – cell-based, CellTiter-Glo luminescence, IC50, dose response (AID 1117330); assay type: functional
[14] = CellTiter-Glo luminescent dose response of DLD-1 viability loss (AID 1117352); assay type: functional
[15] = HCT116 cell viability decrease, GSK3B pretreatment – CellTiter-Glo, IC50, dose response (AID 1117339); assay type: functional; settings: HCT-116

Sphingosine 1-phosphate receptor 2, sequence (O95136 whole entry): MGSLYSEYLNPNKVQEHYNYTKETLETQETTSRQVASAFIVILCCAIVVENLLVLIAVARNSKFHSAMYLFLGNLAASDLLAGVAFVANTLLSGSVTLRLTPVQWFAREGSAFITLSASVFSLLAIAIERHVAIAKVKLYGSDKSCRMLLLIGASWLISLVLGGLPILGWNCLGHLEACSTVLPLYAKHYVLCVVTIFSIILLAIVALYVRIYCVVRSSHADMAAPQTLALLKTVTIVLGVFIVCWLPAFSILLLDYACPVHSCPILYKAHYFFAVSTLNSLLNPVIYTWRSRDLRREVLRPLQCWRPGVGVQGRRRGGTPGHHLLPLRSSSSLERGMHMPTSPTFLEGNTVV
Bifunctional protein GlmU, sequence (P9WMN3 whole entry): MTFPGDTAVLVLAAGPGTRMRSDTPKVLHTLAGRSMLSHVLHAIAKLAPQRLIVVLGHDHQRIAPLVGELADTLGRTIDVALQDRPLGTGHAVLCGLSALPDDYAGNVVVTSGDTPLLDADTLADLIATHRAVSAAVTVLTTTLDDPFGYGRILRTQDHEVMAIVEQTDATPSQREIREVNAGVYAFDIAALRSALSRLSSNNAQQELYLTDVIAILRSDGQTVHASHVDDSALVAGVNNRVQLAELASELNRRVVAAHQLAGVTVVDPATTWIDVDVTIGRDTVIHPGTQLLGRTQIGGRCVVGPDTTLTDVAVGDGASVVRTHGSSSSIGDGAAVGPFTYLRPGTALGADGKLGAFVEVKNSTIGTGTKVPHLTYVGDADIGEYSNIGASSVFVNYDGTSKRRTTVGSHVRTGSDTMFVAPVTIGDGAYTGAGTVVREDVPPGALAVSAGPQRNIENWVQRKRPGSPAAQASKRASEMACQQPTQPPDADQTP
Glyceraldehyde-3-phosphate dehydrogenase, sequence (P04406 whole entry): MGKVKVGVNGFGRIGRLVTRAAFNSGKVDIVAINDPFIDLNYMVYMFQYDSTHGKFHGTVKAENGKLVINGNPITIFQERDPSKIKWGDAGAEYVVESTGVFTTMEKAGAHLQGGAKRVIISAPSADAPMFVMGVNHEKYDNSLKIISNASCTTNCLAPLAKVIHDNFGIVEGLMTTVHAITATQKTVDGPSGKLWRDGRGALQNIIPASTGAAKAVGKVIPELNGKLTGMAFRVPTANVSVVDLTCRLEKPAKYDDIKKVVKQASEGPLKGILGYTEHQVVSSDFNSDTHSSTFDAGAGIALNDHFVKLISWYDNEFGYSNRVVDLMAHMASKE
Estrogen receptor beta, sequence (Q92731 whole entry): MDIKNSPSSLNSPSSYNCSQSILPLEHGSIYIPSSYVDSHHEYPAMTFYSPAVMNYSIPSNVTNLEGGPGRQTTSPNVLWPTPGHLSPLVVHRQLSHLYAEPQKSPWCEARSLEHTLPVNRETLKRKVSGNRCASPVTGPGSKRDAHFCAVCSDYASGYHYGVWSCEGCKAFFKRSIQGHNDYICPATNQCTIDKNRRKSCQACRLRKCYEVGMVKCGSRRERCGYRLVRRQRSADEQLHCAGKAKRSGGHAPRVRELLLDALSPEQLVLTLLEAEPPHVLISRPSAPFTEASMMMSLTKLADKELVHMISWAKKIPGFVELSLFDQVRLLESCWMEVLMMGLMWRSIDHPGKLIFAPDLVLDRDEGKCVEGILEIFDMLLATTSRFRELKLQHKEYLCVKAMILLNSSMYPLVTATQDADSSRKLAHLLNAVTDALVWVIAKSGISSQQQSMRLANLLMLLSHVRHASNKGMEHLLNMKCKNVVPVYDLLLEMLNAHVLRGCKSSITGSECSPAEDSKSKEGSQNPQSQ

SMILES: O=C(O)c1cc(C(=O)O)cc(-c2ccc(/C=c3/sc4nc5ccccc5n4c3=O)o2)c1
- IC50 [1]: 22 µM (not active)
- IC50 [2]: 34.1 µM (active)

SMILES: Cc1cccc(N2C(=O)C(Cl)=C(N3CCN(CCOCCO)CC3)C2=O)c1
- IC50 [3]: > 100 µM (not active)
- IC50 [4]: 6.43 µM (active)
- IC50 [5]: 4.46 µM (active)

SMILES: Cc1c(Cl)cccc1NC(=O)CC1SCCNC1=O (configuration not stated)
- IC50 [6]: > 50 µM (not active)

SMILES: C=CCn1c(N)cc(=O)nc1SCC(=O)Nc1ccccc1
- EC50 [7]: > 50 µM (not active)

SMILES: COc1cc2c(cc1OC)C1=C(C#N)CC/C(=N\C(=O)c3ccc(Cl)cc3)N1CC2
- EC50 [7]: 1.61 µM (active)

SMILES: O=C(O)C1C2C=CC(CC2)C1C(=O)O (configuration not stated)
- IC50 [2]: 114 µM (active)

SMILES: O=C1NCCN1CCN1CCC(c2cn(-c3ccc(F)cc3)c3ccc(Cl)cc23)CC1 [SERTINDOLE]
- IC50 [8]: 2.81 µM (active)
- IC50 [9]: 2.6 µM (active)
- IC50 [10]: 2.16 µM (active)
- IC50 [11]: 1.43 µM (active)
- IC50 [12]: 3.7 µM (active)
- IC50 [13]: 2.86 µM (active)
- IC50 [14]: 5.62 µM (inactive)
- IC50 [15]: 3.52 µM (active)
